The values below come from patent US12018195B2, “Light-selective particles, related methods and related applications” (priority 2014, dated 2024).

The series deals with macrophage cells. The source says:
Positive control includes only growth media (FIG. A).
Positive control includes only growth media.

Structures are written as SMILES.

Take `CC(=O)[O-].CC(=O)[O-].[Zn+2]` [Zn acetate]: the “cytotoxic effect on macrophage cells” value is listed as “toxic impact”.
